Earlier results, collected in patent US20120077687A1, “PROGNOSTIC AND PREDICTIVE GENE SIGNATURE FOR NON-SMALL CELL LUNG CANCER AND ADJUVANT CHEMOTHERAPY” (priority 2010, published 2012).
Read-outs that look alike come from different tables or passages of the source.

Legend:
stage IB NSCLC patients = settings: 344 stage IB patients, chemotherapy vs observation
[1] = test system: non-small cell lung cancer (NSCLC) patients; settings: for HR (survival): LACE meta-analysis

| Molecule | HR, disease-free survival (stage IB NSCLC patients; p=0.065) | HR, overall survival (stage IB NSCLC patients; p=0.12) | 5-year survival advantage conferred by adjuvant chemotherapy ([1]; ANITA trial, 840 stage IB-IIIA patients) [%] | 5-year survival advantage conferred by adjuvant chemotherapy ([1]; IALT, 1,867 stage I-III patients) [%] | absolute survival advantage at 5-year ([1]; LACE meta-analysis of 5 cisplatin-based trials) [%] | HR (survival) ([1]; all patients, 95% CI 0.82-0.96, p=0.004) | HR (survival) ([1]; stage IA patients, 95% CI 0.96-2.09, detriment suggested) | HR (survival) ([1]; stage IB patients, 95% CI 0.78-1.10, no significant benefit) | 5-year survival advantage conferred by adjuvant chemotherapy ([1]; NCIC CTG BR.10 Trial, 483 stage IB-II patients) [%] |
| --- | --- | --- | --- | --- | --- | --- | --- | --- | --- |
| carboplatin and paclitaxel | 0.80 | 0.83 |  |  |  |  |  |  |  |
| N.N.[Cl][Pt][Cl] [cisplatin] |  |  | 9 | 4 | 5.3 | 0.89 | 1.41 | 0.92 | 15 |
